Reference: patent US11285156B2, “Substituted piperazines as KRAS G12C inhibitors” (Amgen Inc., priority 2018, dated 2022)
Where two headings read alike, the source gives them in different places.

Experiments:
[1] = biological target: GDP-bound KRAS protein (aa 1-169), containing both G12C and C118A amino acid substitutions (Homo sapiens (Human), UniProt P01116, C118A/G12C); assay: Coupled nucleotide exchange assay (SOS-mediated nucleotide exchange, AlphaScreen); type: biochemical; details: read-out: Coupled exchange IC50 (5 min; μM); 5 min compound pre-incubation
Sequence of GDP-bound KRAS protein (aa 1-169), containing both G12C and C118A amino acid substitutions (P01116 other isoform, or with tags, fused parts or gaps G12C/C118A): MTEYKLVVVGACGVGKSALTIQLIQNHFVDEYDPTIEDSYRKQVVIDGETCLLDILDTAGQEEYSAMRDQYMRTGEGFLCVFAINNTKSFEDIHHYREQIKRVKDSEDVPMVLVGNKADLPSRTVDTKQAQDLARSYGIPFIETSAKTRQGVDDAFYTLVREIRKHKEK

[2] = tested on: Phosphorylation of ERK1/2 in MIA PaCa-2 cells; assay: Phospho-ERK1/2 MSD assay in MIA PaCa-2 cells; type: cell-based; details: read-out: p-ERK IC50 (2 h, MiaPaCa-2; μM), 2 h compound treatment, MIA PaCa-2 cells, EGF stimulated
Summary of the method: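 Phospho-ERK1/2 measured by MSD electrochemiluminescence kit in RIPA lysates of MIA PaCa-2 cells. Cells were treated with compound titrations for 2 or 4 h at 37 °C, 5% CO2, followed by a 10 min pulse of 10 ng/mL EGF.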

[3] = tested on: Phosphorylation of ERK1/2 in A549 cells; assay: Phospho-ERK1/2 MSD assay in A549 cells; type: cell-based; details: read-out: p-ERK IC50 (2 h, A549; μM), 2 h compound treatment, A549 cells, EGF stimulated
Summary of the method: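 Readout: MSD phospho-ERK1/2 signal after compound (2 or 4 h) and 10 min EGF stimulation at 10 ng/mL.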

Structure (SMILES)	IC50 [1]	IC50 [2]	IC50 [3]	IC50 ([2]; Homo sapiens, MIA PaCa-2, 2 h)	IC50 ([3]; Homo sapiens, A549, 2 h)
C=CC(=O)N1C[C@H](C)N(c2nc(=O)n(-c3c(C)ccnc3C(C)C)c3nc(C4CCCCC4)c(Cl)cc23)C[C@H]1C (atropisomer, axis not shown; (M)) [Example 95-1, (M)-6-Chloro-7-cyclohexyl-4-[(2S,5R)-2,5-dimethyl-4-prop-2-enoyl-piperazin-1-yl]-1-(2-isopropyl-4-methyl-3-pyridyl)pyrido[2,3-d]pyrimidin-2-one]	0.053 µM	0.318 µM	> 7.5 µM		
C=CC(=O)N1C[C@H](C)N(c2nc(=O)n(-c3c(C)ccnc3C(C)C)c3nc(C4CCC4)c(Cl)cc23)C[C@H]1C (atropisomer, axis not shown; (M)) [Example 95-5, (M)-6-chloro-7-cyclobutyl-4-[(2S,5R)-2,5-dimethyl-4-prop-2-enoyl-piperazin-1-yl]-1-(2-isopropyl-4-methyl-3-pyridyl)pyrido [2,3-d]pyrimidin-2-one]	0.304 µM			0.611 µM	> 7.5 µM
C=CC(=O)N1C[C@H](C)N(c2nc(=O)n(-c3c(C)ccnc3C(C)C)c3nc(-c4cc(OC(F)(F)F)ccc4F)c(Cl)cc23)C[C@H]1C (atropisomer, axis not shown; (M)) [Example 124-12, (M)-6-Chloro-4-[(2S,5R)-2,5-dimethyl-4-prop-2-enoyl-piperazin-1-yl]-7-[2-fluoro-5-(trifluoromethoxy)phenyl]-1-(2-isopropyl-4-methyl-3-pyridyl)pyrido[2,3-d]pyrimidin-2-one]	0.313 µM			0.231 µM	> 7.5 µM
C=CC(=O)N1C[C@H](C)N(c2nc(=O)n(-c3c(C)ccnc3C(C)C)c3nc(-c4cc(F)c(F)cc4O)c(Cl)cc23)C[C@H]1C (atropisomer, axis not shown; (M)) [Example 124-13, (M)-6-Chloro-7-(4,5-difluoro-2-hydroxy-phenyl)-4-[(2S,5R)-2,5-dimethyl-4-prop-2-enoyl-piperazin-1-yl]-1-(2-isopropyl-4-methyl-3-pyridyl)pyrido[2,3-d]pyrimidin-2-one]	0.068 µM			0.094 µM	> 7.5 µM
C=CC(=O)N1C[C@H](C)N(c2nc(=O)n(-c3c(C)ccnc3C(C)C)c3nc(-c4c(F)cccc4NC(C)=O)c(Cl)cc23)C[C@H]1C (atropisomer, axis not shown; (M)) [Example 129-1, (M)-N-[2-[6-Chloro-4-[(2S,5R)-2,5-dimethyl-4-prop-2-enoyl-piperazin-1-yl]-1-(2-isopropyl-4-methyl-3-pyridyl)-2-oxo-pyrido[2,3-d]pyrimidin-7-yl]-3-fluoro-phenyl]acetamide]	0.054 µM	0.124 µM	> 7.5 µM		
C=CC(=O)N1C[C@H](C)N(c2nc(=O)n(-c3c(C)ccnc3C(C)C)c3nc(-c4c(F)cccc4NC(=O)C(F)(F)F)c(Cl)cc23)C[C@H]1C (atropisomer, axis not shown; (M)) [Example 129-2, (M)-N-[2-[6-Chloro-4-[(2S,5R)-2,5-dimethyl-4-prop-2-enoyl-piperazin-1-yl]-1-(2-isopropyl-4-methyl-3-pyridyl)-2-oxo-pyrido[2,3-d]pyrimidin-7-yl]-3-fluoro-phenyl]-2,2,2-trifluoro-acetamide]	0.065 µM			0.027 µM	> 7.5 µM
C=CC(=O)N1C[C@H](C)N(c2nc(=O)n(-c3c(C)ccnc3C(C)C)c3nc(-c4c(F)cccc4NC(=O)CC)c(Cl)cc23)C[C@H]1C (atropisomer, axis not shown; (M)) [Example 129-4, (M)-N-[2-[6-Chloro-4-[(2S,5R)-2,5-dimethyl-4-prop-2-enoyl-piperazin-1-yl]-1-(2-isopropyl-4-methyl-3-pyridyl)-2-oxo-pyrido[2,3-d]pyrimidin-7-yl]-3-fluoro-phenyl]propanamide]	0.053 µM			0.058 µM	> 7.5 µM
C=CC(=O)N1C[C@H](C)N(c2nc(=O)n(-c3c(C)ccnc3C(C)C)c3nc(-c4ccccc4NC(=O)C(F)(F)F)c(Cl)cc23)C[C@H]1C (atropisomer, axis not shown; (M)) [Example 129-5]	0.19 µM			0.087 µM	> 7.5 µM
